Experiments:
Type in all cases: cell-based, HIV-1
HIV-IIIb IN T174I BT = test: Antiviral assay in MT4 cells, HIV-IIIb IN T174I BT virus (from viral breakthrough); details: Human immunodeficiency virus 1, IIIB, MT4, 120 h, read-out: T174I BT EC50, MT4 cells, HIV-IIIb IN T174I BT (viral breakthrough), 5 days, CellTiter-Glo
In short: (§1)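 HIV-IIIb at 0.004 m.o.i., 3 h pre-infection of MT4 cells at 37 °C; 2000 cells/well in RPMI 1640 + 10% FBS with 3-fold compound dilutions, 10 conc., quadruplicate. 5-day incubation, CellTiter-Glo readout. EC50 = 50% luminescence decrease.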

HIV-IIIb (wildtype) = test: Antiviral assay in MT4 cells, HIV-IIIb wildtype; details: Human immunodeficiency virus 1, IIIB, MT4, 120 h, read-out: WT EC50
In short: as §1

HIV-IIIb IN T174I DE = test: Antiviral assay in MT4 cells, HIV-IIIb IN T174I DE virus (from dose escalation passaging); details: Human immunodeficiency virus 1, IIIB, MT4, 120 h, read-out: T174I DE EC50, MT4 cells, HIV-IIIb IN T174I DE (dose escalation), 5 days, CellTiter-Glo
In short: as §1

| SMILES | EC50 (HIV-IIIb IN T174I BT) | EC50 (HIV-IIIb (wildtype)) | EC50 (HIV-IIIb IN T174I DE) |
| --- | --- | --- | --- |
| CC(=O)N1CC(N2CCC(c3c4nc(-c5nc6cc(C)c([C@H](OC(C)(C)C)C(=O)O)c(-c7ccc(Cl)cc7)c6s5)ccc4nn3C(F)F)CC2)C1 [Compound 189, (S)-2-(2-(3-(1-(1-acetylazetidin-3-yl)piperidin-4-yl)-2-(difluoromethyl)-2H-pyrazolo [4,3-b]pyridin-5-yl)-7-(4-chloro-phenyl)-5-methylbenzo[d]thiazol-6-yl)-2-(tert-butoxy) acetic acid] | 1020 nM | 12 nM | 1400 nM |
| Cc1cc2nc(-c3ccc4c(c3)c(N3CCC(C5COC5)CC3)nn4C)sc2c(-c2ccc(Cl)cc2)c1[C@H](OC(C)(C)C)C(=O)O [Compound 146, (S)-2-(tert-butoxy)-2-(7-(4-chloro-phenyl)-5-methyl-2-(1-methyl-3-(4-(oxetan-3-yl)piperidin-1-yl)-1H-indazol-5-yl)benzo[d]thiazol-6-yl)acetic acid] | 1740 nM | 31 nM | 2220 nM |
| COCCN1CC[C@H](c2nn(C)c3ccc(-c4nc5cc(C)c([C@H](OC(C)(C)C)C(=O)O)c(-c6ccc(Cl)cc6)c5s4)cc23)C1 (single isomer, unassigned) [Compound 68] | 1160 nM | 5 nM | 1600 nM |
| Cc1cc2nc(-c3ccc4c(c3)c(N3CCN(C)C(=O)C3)nn4C)sc2c(-c2ccc(Cl)cc2)c1[C@H](OC(C)(C)C)C(=O)O [Compound 85, (S)-2-(tert-butoxy)-2-(7-(4-chlorophenyl)-5-methyl-2-(1-methyl-3-(4-methyl-3-oxopiperazin-1-yl)-1H-indazol-5-yl)benzo[d]thiazol-6-yl)acetic acid] | 1350 nM | 57 nM | 1170 nM |
| Cc1cc2nc(-c3ccn4ncc(C5CCN(C6COC6)CC5)c4n3)sc2c(-c2ccc(Cl)cc2)c1[C@H](OC(C)(C)C)C(=O)O [Compound 109, (S)-2-(tert-butoxy)-2-(7-(4-chlorophenyl)-5-methyl-2-(3-(1-(oxetan-3-yl)piperidin-4-yl)pyrazolo[1,5-a]pyrimidin-5-yl)benzo[d]thiazol-6-yl)acetic acid] | 205 nM | 3 nM | 614 nM |
| CC(=O)N1CC(N2CCC(c3nn(C4CC4)c4ccc(-c5nc6cc(C)c([C@H](OC(C)(C)C)C(=O)O)c(-c7ccc(Cl)cc7)c6s5)nc34)CC2)C1 [Compound 182, (S)-2-(2-(3-(1-(1-acetylazetidin-3-yl)piperidin-4-yl)-1-cyclopropyl-1H-pyrazolo[4,3-b]pyridin-5-yl)-7-(4-chlorophenyl)-5-methylbenzo [d]thiazol-6-yl)-2-(tert-butoxy) acetic acid] | 27 nM | 2 nM | 59 nM |
| CC(=O)N1CC(N2CCC(c3nn(C)c4ccc(-c5nc6cc(C)c([C@H](OC(C)(C)C)C(=O)O)c(-c7ccc(Cl)cc7)c6s5)cc34)CC2)C1 [Compound 30, (S)-2-(2-(3-(1-(1-acetylazetidin-3-yl)piperidin-4-yl)-1-methyl-1H-indazol-5-yl)-7-(4-chlorophenyl)-5-methylbenzo[d]thiazol-6-yl)-2-(tert-butoxy)acetic acid] | 111 nM | 12 nM | 187 nM |
| COC(=O)N1CC(N2CCC(c3cnn4ccc(-c5nc6cc(C)c([C@H](OC(C)(C)C)C(=O)O)c(-c7ccc(Cl)cc7)c6s5)nc34)CC2)C1 [Compound 110, (S)-2-(tert-butoxy)-2-(7-(4-chlorophenyl)-2-(3-(1-(1-(methoxycarbonyl)azetidin-3-yl)piperidin-4-yl)pyrazolo[1,5-a]pyrimidin-5-yl)-5-methylbenzo[d]thiazol-6-yl)acetic acid] | 198 nM | 2 nM | 559 nM |
| [2H]C([2H])([2H])n1nc(C2CCN(C3COC3)CC2)c2cc(-c3nc4cc(C)c([C@H](OC(C)(C)C)C(=O)O)c(-c5ccc(Cl)cc5)c4s3)ccc21 [Compound 40, (S)-2-(tert-butoxy)-2-(7-(4-chlorophenyl)-5-methyl-2-(1-(methyl-d3)-3-(1-(oxetan-3-yl)piperidin-4-yl)-1H-indazol-5-yl)benzo[d]thiazol-6-yl)acetic acid] | 257 nM | 10 nM | 518 nM |
